Source: the NIST ThermoML archive (doi:10.1016/j.tca.2014.07.022)

Experiment: xn = mol fraction of the nth substance listed
Details: 100 kPa, Liquid; for viscosity: Concentric cylinders viscometry; for mass density: Vibrating tube method

CC(=O)CC(C)C [4-methylpentan-2-one] + CCC(C)O
Details	mass density, 293.15 K [kg/m3]	mass density, 298.15 K [kg/m3]	mass density, 303.15 K [kg/m3]	viscosity, 293.15 K [mPa·s]	viscosity, 298.15 K [mPa·s]	viscosity, 303.15 K [mPa·s]	viscosity, 308.15 K [mPa·s]
x1 = 0.1002	805.1	800.9	796.4	2.361	2.041	1.762	1.531
x1 = 0.1905	803.8	799.5	795	1.802	1.598	1.403	1.247
x1 = 0.2801	802.8	798.4	793.9	1.468	1.311	1.173	1.055
x1 = 0.4054	801.7	797.2	792.6	1.162	1.053	0.955	0.87
x1 = 0.4891	801.2	796.6	792.1	1.001	0.916	0.84	0.775
x1 = 0.6123	800.7	796	791.5	0.84	0.776	0.716	0.664
x1 = 0.6942	800.5	795.9	791.3	0.771	0.717	0.668	0.623
x1 = 0.779	800.5	795.8	791.2	0.713	0.666	0.621	0.582
x1 = 0.8747	800.5	795.8	791.3	0.646	0.607	0.569	0.536
x1 = 0.9522	800.7	796	791.4	0.614	0.582	0.545	0.513
x1 = 1	800.8	796.1	791.6	0.588	0.554	0.523	0.493
